The structures appear in SMILES notation.

This is an account of results in US9283222B2 (priority 2006, dated 2016).

For this test, the target named is Recombinant Human Poly(ADP-Ribose) Polymerase (PARP), PARP-1 (Homo sapiens (Human), UniProt P09874). The settings on record: read-out: PARP-1 (Ki); Table 1; text calls the values EC50s.
Recombinant Human Poly(ADP-Ribose) Polymerase (PARP), PARP-1, sequence (P09874 whole entry): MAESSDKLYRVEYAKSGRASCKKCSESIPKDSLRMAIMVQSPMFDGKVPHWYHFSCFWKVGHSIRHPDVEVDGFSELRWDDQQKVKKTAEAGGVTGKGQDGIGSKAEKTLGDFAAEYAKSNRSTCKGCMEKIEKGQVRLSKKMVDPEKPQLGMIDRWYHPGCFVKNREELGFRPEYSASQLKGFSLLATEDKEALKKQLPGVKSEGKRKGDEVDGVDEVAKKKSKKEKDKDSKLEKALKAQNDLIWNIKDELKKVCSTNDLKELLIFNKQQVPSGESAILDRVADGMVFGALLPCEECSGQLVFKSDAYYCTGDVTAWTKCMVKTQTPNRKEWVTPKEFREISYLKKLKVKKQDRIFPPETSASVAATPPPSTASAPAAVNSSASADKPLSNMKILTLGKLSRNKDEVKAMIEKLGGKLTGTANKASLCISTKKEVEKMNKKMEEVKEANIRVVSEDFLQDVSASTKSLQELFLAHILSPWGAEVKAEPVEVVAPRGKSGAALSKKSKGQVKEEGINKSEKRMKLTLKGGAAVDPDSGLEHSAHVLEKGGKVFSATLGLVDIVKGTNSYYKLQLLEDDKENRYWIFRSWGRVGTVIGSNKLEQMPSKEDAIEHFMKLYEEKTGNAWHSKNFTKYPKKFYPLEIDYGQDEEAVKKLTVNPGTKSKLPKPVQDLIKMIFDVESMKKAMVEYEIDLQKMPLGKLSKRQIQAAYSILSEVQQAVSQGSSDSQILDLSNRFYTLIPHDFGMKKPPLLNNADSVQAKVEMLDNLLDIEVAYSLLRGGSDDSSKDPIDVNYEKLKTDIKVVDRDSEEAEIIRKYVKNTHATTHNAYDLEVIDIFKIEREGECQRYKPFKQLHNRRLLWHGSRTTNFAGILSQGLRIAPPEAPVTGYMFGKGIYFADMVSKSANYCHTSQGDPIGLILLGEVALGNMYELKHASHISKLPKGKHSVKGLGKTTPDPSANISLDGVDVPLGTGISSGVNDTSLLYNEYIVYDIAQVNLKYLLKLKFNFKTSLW

For orientation: Ki means the dissociation constant of the complex between target and ligand, obtained from inhibition or displacement. With `O=C(c1ccc2nc[nH]c2c1)N1CCCN(C(=O)c2cc(Cc3n[nH]c(=O)c4c3NCCC4)ccc2F)CC1` [Example 686, 8-(3-{[4-(1H-benzimidazol-6-ylcarbonyl)-1,4-diazepan-1-yl]carbonyl}-4-fluorobenzyl)-2,3,4,6-tetrahydropyrido[2,3-d]pyridazin-5(1H)-one], the Ki is 1.9 nM.
The figure for `O=C(c1ccc2ccccc2n1)N1CCCN(C(=O)c2cc(Cc3n[nH]c(=O)c4c3NCCC4)ccc2F)CC1` [Example 687, 8-(4-fluoro-3-{[4-(quinolin-2-ylcarbonyl)-1,4-diazepan-1-yl]carbonyl}benzyl)-2,3,4,6-tetrahydropyrido[2,3-d]pyridazin-5(1H)-one] is 4.2 nM.
The figure for `O=C(c1cnc2ccccc2c1)N1CCCN(C(=O)c2cc(Cc3n[nH]c(=O)c4c3NCCC4)ccc2F)CC1` [Example 688, 8-(4-fluoro-3-{[4-(quinolin-3-ylcarbonyl)-1,4-diazepan-1-yl]carbonyl}benzyl)-2,3,4,6-tetrahydropyrido[2,3-d]pyridazin-5(1H)-one] is 2.4 nM; for `Cc1nc2cc(C(=O)N3CCCN(C(=O)c4cc(Cc5n[nH]c(=O)c6c5NCCC6)ccc4F)CC3)ccc2[nH]1` [Example 689, 8-[4-fluoro-3-({4-[(2-methyl-1H-benzimidazol-5-yl)carbonyl]-1,4-diazepan-1-yl}carbonyl)benzyl]-2,3,4,6-tetrahydropyrido[2,3-d]pyridazin-5(1H)-one] it is 2.7 nM.
To `CC(C)n1nnc2cc(C(=O)N3CCCN(C(=O)c4cc(Cc5n[nH]c(=O)c6c5NCCC6)ccc4F)CC3)ccc21` [Example 690, 8-[4-fluoro-3-({4-[(1-isopropyl-1H-1,2,3-benzotriazol-5-yl)carbonyl]-1,4-diazepan-1-yl}carbonyl)benzyl]-2,3,4,6-tetrahydropyrido[2,3-d]pyridazin-5(1H)-one] belongs 2.4 nM.
With `O=C(c1ccc(F)cc1)C1CCN(C(=O)c2cc(Cc3n[nH]c(=O)c4c3NCCC4)ccc2F)CC1` [Example 691, 8-(4-fluoro-3-{[4-(4-fluorobenzoyl)piperidin-1-yl]carbonyl}benzyl)-2,3,4,6-tetrahydropyrido[2,3-d]pyridazin-5(1H)-one], the Ki came to 2.1 nM.
To `CC1(C)SCNC1C(=O)N1CCN(C(=O)c2cc(Cc3n[nH]c(=O)c4c3NCCC4)ccc2F)CC1` (stereo not drawn) [Example 692, 8-[3-({4-[(5,5-dimethyl-1,3-thiazolidin-4-yl)carbonyl]piperazin-1-yl}carbonyl)-4-fluorobenzyl]-2,3,4,6-tetrahydropyrido[2,3-d]pyridazin-5(1H)-one] belongs 1.6 nM; to `O=C(c1cnccn1)N1CCCN(C(=O)c2cc(Cc3n[nH]c(=O)c4c3NCCC4)ccc2F)CC1` [Example 693, 8-(4-fluoro-3-{[4-(pyrazin-2-ylcarbonyl)-1,4-diazepan-1-yl]carbonyl}benzyl)-2,3,4,6-tetrahydropyrido[2,3-d]pyridazin-5(1H)-one], 2 nM; to `O=C(c1ccco1)N1CCCN(C(=O)c2cc(Cc3n[nH]c(=O)c4c3NCCC4)ccc2F)CC1` [Example 694, 8-(4-fluoro-3-{[4-(2-furoyl)-1,4-diazepan-1-yl]carbonyl}benzyl)-2,3,4,6-tetrahydropyrido[2,3-d]pyridazin-5(1H)-one], 1.7 nM.
As to `O=C(c1cc(Cc2n[nH]c(=O)c3c2NCCC3)ccc1F)N1CCN(c2cncnc2)CC1` [Example 696, 8-{4-fluoro-3-[(4-pyrimidin-5-ylpiperazin-1-yl)carbonyl]benzyl}-2,3,4,6-tetrahydropyrido[2,3-d]pyridazin-5(1H)-one], the Ki was 2.5 nM.
To `CN1CCN(C(=O)c2cc(Cc3n[nH]c(=O)c4c3NCCC4)ccc2F)CC1=O` [Example 697, 8-{4-fluoro-3-[(4-methyl-3-oxopiperazin-1-yl)carbonyl]benzyl}-2,3,4,6-tetrahydropyrido[2,3-d]pyridazin-5(1H)-one] belongs 2.2 nM; to `CN(C(=O)c1cc(Cc2n[nH]c(=O)c3c2NCCC3)ccc1F)C1CCN(C(=O)OC(C)(C)C)CC1` [Example 698, tert-butyl 4-[{2-fluoro-5-[(5-oxo-1,2,3,4,5,6-hexahydropyrido[2,3-d]pyridazin-8-yl)methyl]benzoyl}(methyl)amino]piperidine-1-carboxylate], 11 nM.
The figure for `CC(C)(C)OC(=O)N1CCC(NC(=O)c2cc(Cc3n[nH]c(=O)c4c3NCCC4)ccc2F)CC1` [Example 699, tert-butyl 4-({2-fluoro-5-[(5-oxo-1,2,3,4,5,6-hexahydropyrido[2,3-d]pyridazin-8-yl)methyl]benzoyl}amino)piperidine-1-carboxylate] is 74 nM.
As to `CC(C)(C)OC(=O)NC1CCN(C(=O)c2cc(Cc3n[nH]c(=O)c4c3NCCC4)ccc2F)CC1` [Example 700, tert-butyl 1-{2-fluoro-5-[(5-oxo-1,2,3,4,5,6-hexahydropyrido[2,3-d]pyridazin-8-yl)methyl]benzoyl}piperidin-4-ylcarbamate], the Ki was 2.8 nM.
As to `O=C(c1cc(Cc2n[nH]c(=O)c3c2NCCC3)ccc1F)N1CCCN(C(=O)[C@@H]2CSCN2)CC1` [Example 701, 8-[4-fluoro-3-({4-[(4R)-1,3-thiazolidin-4-ylcarbonyl]-1,4-diazepan-1-yl}carbonyl)benzyl]-2,3,4,6-tetrahydropyrido[2,3-d]pyridazin-5(1H)-one], the Ki turned out to be 2.3 nM.
To `O=C(c1cc[nH]n1)N1CCCN(C(=O)c2cc(Cc3n[nH]c(=O)c4c3NCCC4)ccc2F)CC1` [Example 702, 8-(4-fluoro-3-{[4-(1H-pyrazol-3-ylcarbonyl)-1,4-diazepan-1-yl]carbonyl}benzyl)-2,3,4,6-tetrahydropyrido[2,3-d]pyridazin-5(1H)-one] belongs 2.1 nM; to `O=C(c1cscn1)N1CCCN(C(=O)c2cc(Cc3n[nH]c(=O)c4c3NCCC4)ccc2F)CC1` [Example 703, 8-(4-fluoro-3-{[4-(1,3-thiazol-4-ylcarbonyl)-1,4-diazepan-1-yl]carbonyl}benzyl)-2,3,4,6-tetrahydropyrido[2,3-d]pyridazin-5(1H)-one], 2.3 nM.
The figure for `O=C(c1cc[nH]n1)N1CCN(C(=O)c2cc(Cc3n[nH]c(=O)c4c3NCCC4)ccc2F)CC1` [Example 704, 8-(4-fluoro-3-{[4-(1H-pyrazol-3-ylcarbonyl)piperazin-1-yl]carbonyl}benzyl)-2,3,4,6-tetrahydropyrido[2,3-d]pyridazin-5(1H)-one] is 0.6 nM.
The figure for `O=C(c1cscn1)N1CCN(C(=O)c2cc(Cc3n[nH]c(=O)c4c3NCCC4)ccc2F)CC1` [Example 705, 8-(4-fluoro-3-{[4-(1,3-thiazol-4-ylcarbonyl)piperazin-1-yl]carbonyl}benzyl)-2,3,4,6-tetrahydropyrido[2,3-d]pyridazin-5(1H)-one] is 1.4 nM; for `CN(C(=O)c1cc(Cc2n[nH]c(=O)c3c2NCCC3)ccc1F)C1CCNCC1` [Example 706, 2-fluoro-N-methyl-5-[(5-oxo-1,2,3,4,5,6-hexahydropyrido[2,3-d]pyridazin-8-yl)methyl]-N-piperidin-4-ylbenzamide] it is 5 nM.
For the compound `O=C(NC1CCC(O)CC1)c1cc(Cc2n[nH]c(=O)c3c2NCCC3)ccc1F` (stereo not drawn) [Example 709, 2-fluoro-N-(4-hydroxycyclohexyl)-5-[(5-oxo-1,2,3,4,5,6-hexahydropyrido[2,3-d]pyridazin-8-yl)methyl]benzamide], the Ki came out at 53 nM.
